Measurements reported in patent publication US8372879B2, “4-(heterocycloalkyl) benzene-1,3-diol compounds as tyrosinase inhibitors, process for the preparation thereof and use thereof in human medicine and also in cosmetics” (Galderma Research & Development, priority 2008, dated 2013).

Legend:
[1] = tested on: MNT1 human melanoma cells; assay: Melanogenesis inhibition assay (14C-thiouracil incorporation standardized through 3H-leucine); type: cell-based; conditions: MNT-1, incubation for 24 h, 14C incorporation standardized through 3H incorporation
Procedure: (§1) The inhibition of melanogenesis is measured in MNT1 human melanoma cells according to a protocol adapted from Reigner et al., Cell Mol Biol (1999) 45: 969-980. The assay is based on the concomitant incorporation of 2 radiolabelled tracers: ^14C-thiouracil is incorporated into the neosynthesized melanin and reflects melanogenesis, whereas ^3H-leucine is incorporated into the proteins and reflects cell viability and, consequently, the toxicity of the compounds tested.
(§2) The MNT1 cells are seeded into 96-well plates in the presence of the test compounds and of the radio-isotopes. After incubation for 24 h at 37° C., the cells are washed and the amount of the 2 radioisotopes is measured. The test compounds are evaluated in terms of dose-response so as to calculate an IC50 for inhibition of melanogenesis on the basis of the ^14C incorporation which is standardized through the ^3H incorporation. An IC50 for cell toxicity is also calculated on the basis of the ^3H incorporation.

[2] = Cell toxicity (3H-leucine incorporation) in melanogenesis assay; type: cell-based; conditions: human, MNT1 human melanoma cells, incubation for 24 h
Procedure: as §1, §2

[3] = biological target: T1, tyrosinase (Mus musculus, UniProt P11344); assay: Tyrosinase activity inhibition assay (B16F1 cell lysate, L-tyrosine/MBTH, 520 nm); type: biochemical, murine; conditions: lysate of B16F1 cells, 6 hours of incubation at 37° C.; read-out: Tyrosine hydroxylase/Dopa oxidase IC50
T1 construct: the supernatant obtained constitutes the cell lysate used as tyrosinase source in the enzymatic assay; endogenous in cells; host or cells: B16F1 murine melanoma cells, stimulated with alpha-MSH; detergent/ultrasound lysate supernatant
T1 sequence (P11344 19-533): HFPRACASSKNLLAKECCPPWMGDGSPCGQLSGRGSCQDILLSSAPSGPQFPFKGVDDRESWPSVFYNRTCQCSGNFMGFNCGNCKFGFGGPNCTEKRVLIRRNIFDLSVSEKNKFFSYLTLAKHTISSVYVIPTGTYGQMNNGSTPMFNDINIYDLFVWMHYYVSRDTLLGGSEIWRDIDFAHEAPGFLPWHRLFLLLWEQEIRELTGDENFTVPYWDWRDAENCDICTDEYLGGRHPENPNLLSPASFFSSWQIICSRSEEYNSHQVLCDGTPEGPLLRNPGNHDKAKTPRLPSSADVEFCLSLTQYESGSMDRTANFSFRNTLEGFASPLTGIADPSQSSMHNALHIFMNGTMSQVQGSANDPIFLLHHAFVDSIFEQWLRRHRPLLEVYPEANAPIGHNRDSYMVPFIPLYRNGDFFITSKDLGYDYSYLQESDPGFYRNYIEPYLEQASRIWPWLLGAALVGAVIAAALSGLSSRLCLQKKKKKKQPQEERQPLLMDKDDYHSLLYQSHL
Procedure: The activity of the inhibitors is measured using a lysate of B16F1 cells (murine melanoma line). In the presence of the L-tyrosine substrate, the tyrosinase present in these cells catalyses the hydroxylation of L-tyrosine to give L-DOPA and then the oxidation of the L-DOPA to give dopaquinone. In the presence of MBTH (3-methyl-2-benzothiazolinone hydrazone), the dopaquinone is trapped so as to form a pink complex which absorbs at 520 nm.
The B16F1 cells are cultured in DMEM medium+10% foetal calf serum+10^−9M α-MSH for 4 days at 37° C. under 7% CO2. They are treated with trypsin, washed in PBS, counted and pelleted. The pellet is taken up at 10^7 cells/ml in lysis buffer (10 mM sodium phosphate, pH 6.8-1% Igepal) and the suspension is treated with ultrasound for 10 seconds. After centrifugation for 30 minutes at 4000 rpm, the supernatant obtained constitutes the cell lysate used as tyrosinase source in the enzymatic assay.
The assays are carried out in duplicate in 384-well plates in a total volume of 50 μl. […]
The plate is incubated at 37° C. and a spectro-photometric reading is carried out at 520 nm after 6 hours of incubation. In order to avoid any possible absorption of the products, the system uses corrected absorbance (absorbance at time 6 h—absorbance at time zero). […]

SMILES	IC50 [1]	IC50 at 24 h [2]	IC50 [3]
CCCCc1ccc(O)cc1O [4-butylresorcinol (Rucinol), 4-butylresorcinol, reference compound]	15 µM	55 µM	–
Oc1ccc(C2CCOCC2)c(O)c1 [Compound 1, 4-(tetrahydropyran-4-yl)benzene-1,3-diol]	1 µM	> 999 µM	0.1 µM
Oc1ccc(C2CCSCC2)c(O)c1 [Compound 2, 4-(tetrahydrothiopyran-4-yl)benzene-1,3-diol]	–	–	0.4 µM
